Test [1] has as its target T1, Peroxisome proliferator-activated receptor gamma (Mus musculus, UniProt P37238).
T1 sequence (P37238 whole entry): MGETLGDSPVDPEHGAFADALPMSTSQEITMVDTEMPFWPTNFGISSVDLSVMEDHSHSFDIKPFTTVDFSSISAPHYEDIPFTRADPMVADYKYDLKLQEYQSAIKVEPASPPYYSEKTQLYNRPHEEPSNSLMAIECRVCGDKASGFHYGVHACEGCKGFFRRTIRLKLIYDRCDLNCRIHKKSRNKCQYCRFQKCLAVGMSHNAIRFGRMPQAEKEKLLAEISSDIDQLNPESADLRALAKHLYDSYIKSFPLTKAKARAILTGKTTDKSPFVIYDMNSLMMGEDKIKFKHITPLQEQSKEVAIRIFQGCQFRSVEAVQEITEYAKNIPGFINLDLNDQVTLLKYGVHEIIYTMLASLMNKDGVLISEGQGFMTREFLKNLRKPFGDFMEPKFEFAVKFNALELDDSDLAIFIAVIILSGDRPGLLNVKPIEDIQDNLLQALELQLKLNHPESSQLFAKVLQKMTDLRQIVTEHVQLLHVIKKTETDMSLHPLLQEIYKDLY
Briefly: Transactivation of mouse PPARgamma expressed in CV1 cells at 100 uM. Format: cell-based. As to conditions: cv-1; call rule not given here.

Test [2] deals with T2, Peroxisome proliferator-activated receptor delta (Mus musculus, UniProt P35396).
T2 sequence (P35396 whole entry): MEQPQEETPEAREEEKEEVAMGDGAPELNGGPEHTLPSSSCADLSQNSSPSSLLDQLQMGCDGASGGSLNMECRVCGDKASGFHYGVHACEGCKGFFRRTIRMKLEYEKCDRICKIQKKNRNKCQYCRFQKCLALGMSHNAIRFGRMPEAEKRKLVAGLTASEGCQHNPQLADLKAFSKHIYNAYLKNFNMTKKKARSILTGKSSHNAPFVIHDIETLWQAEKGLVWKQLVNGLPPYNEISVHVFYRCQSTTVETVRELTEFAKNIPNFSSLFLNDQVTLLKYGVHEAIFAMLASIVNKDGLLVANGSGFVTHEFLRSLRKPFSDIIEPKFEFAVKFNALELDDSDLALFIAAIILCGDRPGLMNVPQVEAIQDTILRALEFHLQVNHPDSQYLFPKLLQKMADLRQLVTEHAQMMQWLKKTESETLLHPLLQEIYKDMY
The experiment in a line: Transactivation of mouse PPARdelta expressed in CV1 cells. Format: cell-based, CV-1.

Test [3] deals with T3, Peroxisome proliferator-activated receptor alpha (Mus musculus, UniProt P23204).
T3 sequence (P23204 whole entry): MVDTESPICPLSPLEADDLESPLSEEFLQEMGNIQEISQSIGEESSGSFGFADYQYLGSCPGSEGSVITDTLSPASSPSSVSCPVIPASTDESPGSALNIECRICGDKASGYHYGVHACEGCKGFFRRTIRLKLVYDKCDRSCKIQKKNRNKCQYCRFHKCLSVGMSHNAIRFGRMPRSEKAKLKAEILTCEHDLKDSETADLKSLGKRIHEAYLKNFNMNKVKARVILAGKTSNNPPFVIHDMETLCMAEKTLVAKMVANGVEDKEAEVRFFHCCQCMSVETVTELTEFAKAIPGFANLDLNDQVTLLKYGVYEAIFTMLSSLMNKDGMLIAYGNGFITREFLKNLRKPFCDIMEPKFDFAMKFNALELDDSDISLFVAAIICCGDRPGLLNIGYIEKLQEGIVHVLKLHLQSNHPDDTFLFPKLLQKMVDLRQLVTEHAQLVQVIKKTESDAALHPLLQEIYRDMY
The experiment in a line: Transactivation of mouse PPARalpha expressed in CV1 cells. Format: cell-based, CV-1.

The text below walks through data of ChEMBL document CHEMBL1255194, “A stereo-controlled synthesis of 2,4-dimethyl-4-hydroxy-16-phenylhexadecanoic acid 1,4-lactone and its PPAR activities” (Bioorg Med Chem Lett, 2010).

Turning to `C[C@H]1C[C@@](C)(CCCCCCCCCCCCc2ccccc2)OC1=O` (stereo in doubt), the values for the EC50 result in test [1], in test [2] and in test [3] were “Not Active”, 22 µM and 24 µM, respectively.
For `C[C@@H]1C[C@@](C)(CCCCCCCCCCCCc2ccccc2)OC1=O` the same measures were “Not Active”, 9 µM and 12 µM.
For the compound `C[C@H]1C[C@@](C)(CCCCCCCCCCCCc2ccccc2)OC1=O` (stereo in doubt; 1a), the values for the concentration giving a half-maximal response (EC50) in test [2] (cv-1) and in test [3] were 22 µM and 20 µM, respectively.
`C[C@H]1C[C@](C)(CCCCCCCCCCCCc2ccccc2)OC1=O` (stereo in doubt; (+)-1c): the EC50 (usually the concentration that produces a half-maximal response) in test [2] came to 24 µM; in test [3], 25 µM.
In the case of `C[C@@H]1C[C@](C)(CCCCCCCCCCCCc2ccccc2)OC1=O`, the EC50 entry in test [1] was “Not Active”; in test [2], 34 µM; in test [3] it was 39 µM.
For `C[C@H]1C[C@](C)(CCCCCCCCCCCCc2ccccc2)OC1=O` (stereo in doubt) the same measures were “Not Active”, 16 µM and 13 µM.
